Like-named read-outs stand apart in the source and are kept apart here.
What was measured:
[1] = Hydrolysis of D—Ala—D—Lac depsipeptide derivative 5 in aqueous phosphate buffer, followed by HPLC; type: biochemical; conditions: substrate 5 0.5 mM, phosphate buffer pH 7.0, 37° C.; for effect on the rate of hydrolysis over buffer: peptides 12 mM
Experimental: The ability of peptide 4a in cleaving the substrate 5 was assessed in aqueous phosphate buffer pH=7 at 37° C. Stock solutions of 16 mM of 5 and 130 mM of peptide were made in water. Phosphate buffer solution of 25 mM was made by adjusting the pH of a K2HPO4 solution to 7.0 by addition of concentrated HCl. To a 1.5 mL glass vial (Waters) were added 5 μL stock solution of 5 and 15 μL stock solution of peptide, followed by 135 μL buffer. The volume was adjusted to 160 μL by addition of water. Vials were kept in an incubator at 37° C. and 2 μL aliquots were taken every 3 h. Each aliquot was diluted with water to 5 μL and 2 μL were injected in HPLC. Separation of components was carried out on a reverse phase column C18 (Waters) using a gradient water/acetonitrile (0.1% TFA).
Using HPLC and monitoring the p-NO2-phenyl derivative by UV at 275 nm, we could easily follow the disappearance of D—Ala—D—Lac derivative 5 and the formation of the hydrolyzed product 4. Under these conditions, we observed a 20% cleavage of the depsipeptide in 24 hrs. […] This proves that the whole structural assembly is necessary for the reaction to occur and that the reaction is not an artifact resulted by a change in the pH of the media due to the presence of the amine functionality.
N-acylated prolinol derivatives (FIG. 5) are the simplest structures that could fulfill such requirements. Their primary alcohol functionality forms an internal H-bond with the amide, the structures allow for the addition of the […] (NH2) through various linkers and moreover, are chiral molecules. The derivatives were tested for their ability to cleave 5 in aqueous phosphate buffer pH=7.0 at 37° C. (FIG. 6). […] One explanation for the higher activity of the very simple molecule SProC5 compared to 4a is the enhanced nucleophilicity of its hydroxyl (H position in H^1 NMR 7.59 ppm vs 6.62 ppm). Activity declines in the series with the decrease of the chain length from 5 carbons to 1 carbon. […] To confirm these speculations we compared the chemical shifts of the OH and NH in the H^1 NMR spectra of the NHBoc protected SProCn series (Table 1).
Substrate 5 was used at 0.5 mM, while prolinol derivatives were run at 12 mM. The graph is the average of three separate assays (FIG. 6).
The ability of peptide 4a in cleaving the substrate 5 was assessed in aqueous phosphate buffer pH 7 at 37° C. Using HPLC and monitoring the p-NO2-phenyl derivative by UV at 275 nm, we could easily follow the disappearance of D—Ala—D—Lac derivative 5 and the formation of the hydrolyzed product 4. […] A 20% hydrolysis of D—Ala—D—Lac in the presence of 4a was observed after 24 h.
The prolinol derivatives were additionally, tested for their ability to cleave 5 in aqueous phosphate buffer pH 7.0 at 37° C. […]

enterococcus = conditions: cited from earlier work
[2] = incorporation of D—Ala—D—Lac by VRE; cited from earlier work
[3] = Combinatorial library screening on beads against red dye-labeled substrate 1; conditions: substrate 1 in 12DCE or DMF, 3-5 days
Experimental: Substrate 1 is treated with combinatorial libraries of potential nucleophiles on solid phase synthesis beads (2), and then those library members are selected that covalently linked the dye to a bead (3). This could be possible assuming that noncovalently bound material would be washed away with a polar solvent (Scheme 2). [drawing 4]
The assay for screening these libraries against 1 involves shaking a desired amount of library beads with the solution of labeled substrate for a period of time. To the library beads were added 200 μL solution of substrate 1 in 12DCE (or DMF), and the mixture was rotated for 3-5 days in a small glass vial. DMF was added and shaking continued for 1 h. Solvent was removed and the washing was repeated several times. One wash was performed with one drop of benzylamine added to DMF to remove any remaining physically bound substrate. The strongly red beads were picked individually in 1.5 μL DMF (in 25 μL capillaries) and photolysed for 6 h under a short wave UV lamp. Decoding was achieved by injecting the content of each capillary in EC-GC and comparing the chromatogram to a standard (20,21).
After the reaction occurred, the label-carrying beads were selected and analyzed (20,21). The initial assays were performed in 1,2-dichloroethane (12DCE) at a concentration of 2.3 mM in substrate 1.
The assay for screening these libraries against 1 involved shaking a desired amount of library beads with the solution of labeled substrate for a period of time. After the reaction occured, the label-carrying beads were selected and analyzed. The initial assays were performed in 1,2-dichloroethane (12DCE) at a concentration of 2.3 mM in substrate 1. After 3 days of shaking, the beads were extensively washed with dimethylformamide (DMF) and once with a diluted solution of benzylamine in DMF to remove any physically bound substrate (FIGS. 9A and 9B).

| Compound | effect on the rate of hydrolysis over buffer [1] | activity in bead screening (red beads / active sequence) [3] | other results |
| --- | --- | --- | --- |
| BnNHL—Lys—D—Pro—L—Ser(tBut)CONMe2 [compound 7] | No significant effect | – | – |
| BnNHL—Lys—D—Pro—L—SerCONMe2 [4a] | – | – | cleavage of the depsipeptide in 24 hrs ([1]; compound 12 mM, 24 h): 20% |
| CN[C@H](CC(C)C)C(=O)N[C@H]1C(=O)N[C@@H](CC(N)=O)C(=O)N[C@H]2C(=O)N[C@H]3C(=O)N[C@H](C(=O)N[C@H](C(=O)O)c4cc(O)cc(O)c4-c4cc3ccc4O)[C@H](O)c3ccc(c(Cl)c3)Oc3cc2cc(c3O[C@@H]2O[C@H](CO)[C@@H](O)[C@H](O)[C@H]2O[C@H]2C[C@](C)(N)[C@H](O)[C@H](C)O2)Oc2ccc(cc2Cl)[C@H]1O [vancomycin] | – | – | MIC of vancomycin (enterococcus; 10% of the peptidoglycan altered to D—Ala—D—Lac): 32 µg/mL; MIC of vancomycin (enterococcus; unaltered peptidoglycan): 2 µg/mL; decrease of affinity of vancomycin for the peptidoglycan layer [2]: over 1000 fold |
| BnNHD—Pro—L—Ser(OH)NHCONMe2 [compound 6] | No significant effect | – | – |
| BnNHL—LysNHAc [compound 8] | No significant effect | – | – |
| L—Lys—D—Pro—L—Ser dimethylurea | – | an active sequence found more frequently in the assays | – |
| D—Asn—L—Lys—L—Pro—L—SerNH2 | – | active sequence | – |
| D—Lys—L—Pro—D—Ser dimethylurea | – | never found as an active sequence | – |
